Like-named read-outs stand apart in the source and are kept apart here.
Legend:
[1] = Food effect on sepiapterin: plasma sepiapterin and BH4 in fasted and fed subjects; format: in vivo; conditions: sepiapterin 10 mg/kg oral
Method: Method: Subjects received 2 oral doses of sepiapterin (10 mg/kg) separated by 1 week in a fasted and fed state. Subjects were fed a standard high-fat (approximately 50 percent of total caloric content of the meal) and high-calorie (approximately 800 to 1000 calories) meal starting 30 minutes prior to receiving their second oral dose of sepiapterin on Day 8.
Sampling for PK analysis occurred predose on Days 1 and 8 (within 30 minutes before dosing) and 0.5 hr, 1 hr, 2 hr, 4 hr, 8 hr, 12 hr, and 24 hr after the doses on Days 1 and 8. The blood concentrations of sepiapterin and BH4 were analyzed by MNG Labs.

[2] = format: in vivo
Method: Method: Twelve subjects were given a single dose (10 mg/kg) of sepiapterin under fasting conditions and then 7 days later under fed conditions. Standard definitions of adverse events (AE) were used. All-cause AE were those that occurred at any time; treatment-emergent adverse events (TEAE) were those that occurred at or after the time of administration of study treatment. TEAEs related to study drug were based on the opinion of the investigator. Serious AE were defined as life threatening or caused death, hospitalization or prolongation of existing hospitalization, or were a persistent or significant disability/incapacity or a substantial disruption of the ability to conduct normal life functions, or a congenital anomaly/birth defect.

[3] = CSF levels of sepiapterin, BH4, BH2 and neurotransmitter metabolites after sepiapterin; format: in vivo; conditions: 60 mg/kg; Day 1 or Day 7 +/-30 minutes from BH4 Tmax
Method: The cerebrospinal fluid (CSF) of selected subjects is collected via lumbar puncture on Day1 (before dose) and on Day 7 (i.e., following daily dosing for 7 days) approximately 30 minutes from time of the maximum observed plasma BH4 concentration (Tmax) as determined from the blood analysis. The cerebral spinal fluid (CSF) is analyzed by MNG Labs. Descriptive statistics are provided to characterize any changes in neurotransmitter metabolism between the Day 1, and Day 7 sample results. Method: Analyses were conducted in CSF samples of subjects administered 60 mg/kg sepiapterin or placebo. The following analytes were measured: sepiapterin, BH4, BH2, homovanillic acid (HVA), and 5-hydroxyindoleacetic acid (HIAA). Descriptive (n, mean, SD, median, minimum, maximum) statistics for these analytes at Day 1 and Day 7+/−30 minutes from Tmax and change from baseline at Day 7 were determined for each analyte.

[4] = Pharmacokinetics of multiple doses of sepiapterin in fed subjects; format: in vivo
From the text: Methods: Three cohorts of eight fed subjects each were randomized to receive once-daily sepiapterin or placebo for 7 days in a 6:2 ratio. A sentinel dose strategy was also used for administration of the highest sepiapterin dose.

C[C@H](O)C(=O)C1=Nc2c(nc(N)[nH]c2=O)NC1 [sepiapterin, Sepiapterin]
1.29 (0.84 to 2.00): Geometric mean ratio (fasted/fed, 90% CI) for plasma sepiapterin AUClast ([1]; fasted/fed)
5: ≥1 AE ([2]; human, in vivo, 10 mg/kg)
much higher: Cmax of BH4 in the plasma, fed compared to fasted ([1]; fed vs fasted)
not detected: Sepiapterin in the CSF [3]
1: TEAE related to study drug ([2]; human, in vivo, 10 mg/kg)
no drug accumulation: Drug accumulation (plasma sepiapterin and BH4 after 1 and 7 days of treatment) ([4]; once daily for 7 days)
1.57 (1.21 to 2.0): Geometric mean ratio (fasted/fed, 90% CI) for plasma sepiapterin Cmax ([1]; fasted/fed)
23 ng·h/mL: AUC0-24 of sepiapterin ([4]; Day 7, 60 mg/kg once daily)
decreased incidence of adverse events: Incidence of adverse events, fed compared to fasted subjects ([2]; single dose 10 mg/kg, fed vs fasted)
much lower: Cmax of sepiapterin in the plasma, fed compared to fasted ([1]; fed vs fasted)
4: TEAE ([2]; human, in vivo, 10 mg/kg)
0 nM: Maximum sepiapterin concentration in plasma ([1]; fasted, 0 h (predose)) | Mean sepiapterin concentration in plasma ([1]; fasted, 0 h (predose)) | Median sepiapterin concentration in plasma ([1]; fasted, 0 h (predose)) | Maximum sepiapterin concentration in plasma ([1]; fasted, 8 h) | Mean sepiapterin concentration in plasma ([1]; fasted, 8 h) | Median sepiapterin concentration in plasma ([1]; fasted, 8 h) | Maximum sepiapterin concentration in plasma ([1]; fasted, 12 h) | Mean sepiapterin concentration in plasma ([1]; fasted, 12 h) | Median sepiapterin concentration in plasma ([1]; fasted, 12 h) | Maximum sepiapterin concentration in plasma ([1]; fasted, 24 h) | Mean sepiapterin concentration in plasma ([1]; fasted, 24 h) | Median sepiapterin concentration in plasma ([1]; fasted, 24 h) | Maximum sepiapterin concentration in plasma ([1]; fed, 0 h (predose)) | Mean sepiapterin concentration in plasma ([1]; fed, 0 h (predose)) | Median sepiapterin concentration in plasma ([1]; fed, 0 h (predose)) | concentration at 2 h ([1]; fed, 0 h (predose), read-out: Minimum sepiapterin concentration in plasma) | Median sepiapterin concentration in plasma ([1]; fed, 0.5 h) | concentration at 2 h ([1]; fed, 0.5 h, read-out: Minimum sepiapterin concentration in plasma) | concentration at 2 h ([1]; fed, 4 h, read-out: Minimum sepiapterin concentration in plasma) | Median sepiapterin concentration in plasma ([1]; fed, 8 h) | concentration at 2 h ([1]; fed, 8 h, read-out: Minimum sepiapterin concentration in plasma) | Maximum sepiapterin concentration in plasma ([1]; fed, 12 h) | Mean sepiapterin concentration in plasma ([1]; fed, 12 h) | Median sepiapterin concentration in plasma ([1]; fed, 12 h) | concentration at 2 h ([1]; fed, 12 h, read-out: Minimum sepiapterin concentration in plasma) | Maximum sepiapterin concentration in plasma ([1]; fed, 24 h) | Mean sepiapterin concentration in plasma ([1]; fed, 24 h) | Median sepiapterin concentration in plasma ([1]; fed, 24 h) | concentration at 2 h ([1]; fed, 24 h, read-out: Minimum sepiapterin concentration in plasma) | concentration at 0 h ([1]; human, plasma, fasted, 0 h (predose), read-out: Minimum sepiapterin concentration in plasma) | concentration at 0.5 h ([1]; human, plasma, fasted, 0.5 h, read-out: Minimum sepiapterin concentration in plasma) | concentration at 4 h ([1]; human, plasma, fasted, 4 h, read-out: Minimum sepiapterin concentration in plasma) | concentration at 8 h ([1]; human, plasma, fasted, 8 h, read-out: Minimum sepiapterin concentration in plasma) | concentration at 12 h ([1]; human, plasma, fasted, 12 h, read-out: Minimum sepiapterin concentration in plasma) | concentration at 24 h ([1]; human, plasma, fasted, 24 h, read-out: Minimum sepiapterin concentration in plasma) | concentration at 1 h ([1]; human, plasma, fed, 1 h, read-out: Minimum sepiapterin concentration in plasma) | concentration at 2 h ([1]; human, plasma, fed, 2 h, read-out: Minimum sepiapterin concentration in plasma)

From patent publication US12257252B2, “Compositions and methods for increasing tetrahydrobiopterin plasma exposure” (PTC Therapeutics MP, Inc., priority 2018, dated 2025)
